This is an account of results in the NIST ThermoML archive (doi:10.1016/j.tca.2014.11.027).

± gives the expanded uncertainty stated by the source.

For the data set the following is noted: Liquid; Gas Chromatography.
With `CCCCOP(=O)(CCCC)OCCCC` [dibutyl butanephosphonate], the Normal boiling temperature amounted to 292.92 ± 2 °C.

Regarding `CCCCP(=O)(OCCC(C)C)OCCC(C)C` [diisopentyl butylphosphonate], the Normal boiling temperature is 306.90 ± 2 °C.

For the molecule `CCCCCCP(=O)(OCCCCC)OCCCCC` [dipentyl hexylphosphonate], the Normal boiling temperature was determined as 344.43 ± 2 °C.

As for `CCCCCOP(=O)(CCCC)OCCCCC` [dipentyl butylphosphonate], the Normal boiling temperature worked out at 319.84 ± 2 °C.

On to `CCCCCP(=O)(OCCC(C)C)OCCC(C)C` [diisopentyl pentylphosphonate], for which the Normal boiling temperature came out at 321.52 ± 2 °C.

Consider `CCCCCP(=O)(OCCCC)OCCCC` [dibutyl pentylphosphonate], for which the Normal boiling temperature turned out to be 306.70 ± 2 °C.

Turning to `CCCCCOP(=O)(CCCCC)OCCCCC` [dipentyl pentylphosphonate], the Normal boiling temperature came to 332.64 ± 2 °C.

Regarding `CCCCCCP(=O)(OCCCC)OCCCC` [dibutyl hexylphosphonate], the Normal boiling temperature was 319.92 ± 2 °C.

Turning to `CCCCCCP(=O)(OCCC(C)C)OCCC(C)C` [diisopentyl hexylphosphonate], the Normal boiling temperature came to 332.33 ± 2 °C.

As to `CCCCCCCCP(=O)(OCCCC)OCCCC` [dibutyl octylphosphonate], the Normal boiling temperature worked out at 332.96 ± 2 °C.
